Assays:
dopamine D-2 receptor = molecular target: T1, dopamine D-2 receptor (Rattus norvegicus, UniProt P61169); test: dopamine D-2 receptor binding (displacement of 3H-spiroperidol, homogenized limbic brain tissue)
T1 construct: from tissue; host or cells: limbic brain tissue, homogenized
Description: High affinity for the dopamine D-2 receptor was established by the standard experimental test procedure of Fields, et al., Brain Res., 136, 578-584 (1977) and Yamamura et al., eds., Neurotransmitter Receptor Binding, Raven Press, N.Y. (1978) wherein homogenized limbic brain tissue is incubated with ^3 H-spiroperiodol and various concentrations of test compound, filtered and washed and shaken with Hydrofluor scintillation cocktail (National Diagnostics) and counted in a Packard 460 CD scintillation counter.

[1] = molecular target: T2, serotonin 5-HT1A receptor (Rattus norvegicus, UniProt P19327); test: serotonin 5-HT1A receptor binding (displacement of [3H]8-OHDPAT)
T2 construct: following the procedure of Hall et al., J. Neurochem; 44, 1685 (1985); from tissue
T2 sequence (P19327 1-422): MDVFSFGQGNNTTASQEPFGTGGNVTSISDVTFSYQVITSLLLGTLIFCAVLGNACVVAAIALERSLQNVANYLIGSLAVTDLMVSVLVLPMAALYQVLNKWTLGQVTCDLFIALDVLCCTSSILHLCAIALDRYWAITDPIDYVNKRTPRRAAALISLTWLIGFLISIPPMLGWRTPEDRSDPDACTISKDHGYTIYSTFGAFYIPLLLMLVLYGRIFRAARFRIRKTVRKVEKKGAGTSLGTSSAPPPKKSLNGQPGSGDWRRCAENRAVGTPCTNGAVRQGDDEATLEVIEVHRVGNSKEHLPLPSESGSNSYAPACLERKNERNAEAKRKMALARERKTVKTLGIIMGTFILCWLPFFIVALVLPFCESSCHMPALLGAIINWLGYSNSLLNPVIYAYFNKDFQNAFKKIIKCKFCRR
From the text: High affinity for the serotonin 5-HT1A receptor was established by testing the claimed compound's ability to displace [^3 H]8-OHDPAT (dipropylaminotetralin) from the 5-HT1A serotonin receptor following the procedure of Hall et al., J. Neurochem. 44, 1685 (1985). […] The anxiolytic activity of buspirone is believed to be, at least partially, due to its 5-HT1A receptor affinity (Vander Maelen et al., Eur. J. Pharmacol., 129 (1-2) 123-130 (1986).

[2] = conditioned avoidance, Discrete Trial (lever press); assay type: in vivo, rat (male CD); conditions: Rattus norvegicus, read-out: Avoidance Block AB50, Discrete Trial
From the text: (§1) The antipsychotic properties of the compound of Example 5 were further established by standard pharmacologically accepted procedures involving conditioned avoidance studies in which trained male CD rats (Charles River), 400-500 g. body weight are exposed to a fifteen second warning tone (conditioned stimulus) continued for an additional fifteen seconds accompanied by electric shock. The rat can avoid the electric shock by jumping to an exposed shelf (shelf-jump response). A response during the initial warning tone is considered an avoidance response, while a response during shock delivery is considered an escape response. The shelf-jump response test procedure follows that of Herman et. al., Comm. in Psychopharm., 3, pp. 165-171 (1979). A similar test procedure (Discrete Trial) in which a lever press was substituted for a shelf-jump was also used to establish the activity of the compound of Example 5. The compound was tested over a full dose range and the Avoidance Block activities reported as "AB50 's (mg/kg): Shelf-jump: 6.43 (no CI) i.p., 58.28 (no CI) p.o.; Discrete Trial: 4.80 (2.14-17.66) i.p., 35.35 (no CI) p.o.

[3] = conditioned avoidance, shelf-jump response test; assay type: in vivo, rat (male CD); conditions: Rattus norvegicus, no CI, read-out: Avoidance Block AB50, Shelf-jump
From the text: as §1

[4] = molecular target: T2, serotonin 5-HT1A receptor; conditions: standard for anxiolytic activity; cited from earlier work

T1 sequence (P61169 whole entry): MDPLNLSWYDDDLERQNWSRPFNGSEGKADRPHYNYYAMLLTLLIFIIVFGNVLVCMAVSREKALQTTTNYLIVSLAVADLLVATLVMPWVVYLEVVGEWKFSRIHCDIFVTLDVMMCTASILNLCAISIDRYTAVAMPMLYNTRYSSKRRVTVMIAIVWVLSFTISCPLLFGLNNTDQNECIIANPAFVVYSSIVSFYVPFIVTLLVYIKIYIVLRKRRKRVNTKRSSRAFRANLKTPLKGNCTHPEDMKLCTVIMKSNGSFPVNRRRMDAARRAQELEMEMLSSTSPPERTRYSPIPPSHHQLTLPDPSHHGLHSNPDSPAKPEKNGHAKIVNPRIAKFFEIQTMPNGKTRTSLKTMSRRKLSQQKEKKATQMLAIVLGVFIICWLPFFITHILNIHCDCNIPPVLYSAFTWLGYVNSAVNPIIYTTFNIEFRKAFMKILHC

Compound | inhibition at 1 µM (dopamine D-2 receptor) | inhibition at 1 µM [1] | Ki [1] | other results
O=C1C2C3C=CC(C4CC34)C2C(=O)N1CCCCN1CCN(c2nsc3ccccc23)CC1 (stereo not shown) [Example 3, 2-[4-[4-(1,2-Benzisothiazol-3-yl)-1-piperazinyl]butyl]-4,4a,5,5a,6,6a-hexahydro-4,6-ethenocycloprop[f]isoindole-1,3(2H,3aH)-dione] | 99% | 100% |  | 
O=C1C2C3C=CC(C4C=CC43)C2C(=O)N1CCCCN1CCN(c2nsc3ccccc23)CC1 (stereo not shown) [Example 4, 2-[4-[4-(1,2-Benzisothiazol-3-yl)-1-piperazinyl]butyl]3a,4,4a,6a,7,7a-hexahydro-4,7-etheno-1H-cyclobut[f]isoindole-1,3(2H)-dione] | 95% | 97% | 0.65 nM | 
O=C1C2CC(C(=O)N1CCCCN1CCN(c3nsc4ccccc34)CC1)C1C2C2C3CC4C2C4C31 (stereo not shown) [Example 5, Decahydro-3-[4-[4-(1,2-benzisothiazol-3-yl)-1-piperazinyl]butyl]-1,5-methano-6,7,9-metheno-2H-pentaleno[1,2-d]azepine-2,4(3H)-dione] | 95% | 96% | 0.065 nM | ED50 ([2]; ip, CI in parentheses): 4.8 mg/kg; ED50 ([2]; po, no CI): 35.4 mg/kg; Ki (dopamine D-2 receptor): 0.5 nM; ED50 ([3]; ip): 6.43 mg/kg; ED50 ([3]; po): 58.3 mg/kg
O=C1C2C(C(=O)N1CCCCN1CCN(c3nsc4ccccc34)CC1)C1C3CC4C(C32)C41 (stereo not drawn) [Example 6, (Exo)-octahydro-2-[4-[4-(1,2-benzisothiazol-3-yl)-1-piperazinyl]butyl]-4,5,7-metheno-1H-pentaleno[1,2-c]pyrrole-1,3(1H)-dione] | 100% | 100% |  | 
O=C1C2C(C(=O)N1CCCCN1CCN(c3nsc4ccccc34)CC1)C1C3CC4C(C32)C41 (stereo not drawn) [Example 7, (Endo)-octahydro-2-[4-[4-(1,2-benzisothiazol-3-yl)-1-piperazinyl]butyl]-4,5,7-metheno-1H-pentaleno[1,2-c]pyrrole-1,3(2H)-dione] |  |  | 0.4 nM | D-2 Binding (Inhibition at 1 μM) (dopamine D-2 receptor; at 1 μM): 100%; 5-HT1A Binding (Inhibition at 1 μM) ([1]; at 1 μM): 100%
O=C1CC2(CCCC2)CC(=O)N1CCCCN1CCN(c2ncccn2)CC1 [buspirone] |  |  |  | affinity for the 5-HT1A serotonin receptor subtype (in words) [4]: high affinity
